In patent US6964759B2, “Formulations containing an anticholinergic drug for the treatment of chronic obstructive pulmonary disease” (Chiesi Farmaceutici S.p.A., priority 2000, dated 2005):

Key:
[1] = Aerodynamic particle size distribution and delivery performance, Andersen Cascade Impactor; type: physicochemical
Experimental: The aerodynamic particle size distribution of each tested formulation was characterized using a Multistage Cascade Impactor according to the procedure described in European Pharmacopoeia 2nd edition, 1995, part V.5.9.1, pages 15-17. In this specific case, an Andersen Cascade Impactor (ACI) was used.
Results were obtained as a mean of 3-4 cans. For each device, 5-25 cumulative actuations were carried out after discarding the first 5.
Deposition of the drug on each ACI plate was determined by high pressure liquid chromatography (HPLC). Mean metered dose was calculated from the cumulative deposition in the actuator and ACI (stages); mean delivered dose was calculated from the cumulative deposition in the ACI. Mean respirable dose (fine particle dose) was obtained from the deposition on Stages 3 to filter corresponding to particles ≦4.71 μm, divided by the number of actuations per experiment.
MAD and associated GSD (standard geometric deviation) values were obtained from probit transformation of cumulative percent undersize—log (ACI effective cut-off particle size diameter) and linear regression analysis of the resultant data, (Ph. Eur. Supp 1999).
The use of a metering chamber volume of 100 μl allows a 320 μg strength variant of the 160 μg formulation.
The delivery characteristics of the formulation in cans equipped with standard Bespack BK 360 actuators with 0.3 mm orifice diameter and a metering chamber volume of 50 μl are reported in Table 2. The use of a metering chamber volume of 100 μl allows a 160 μg strength variant of the 80 μg formulation.
The relevant parameters were determined as described in Example 1.

[2] = inhaled single doses of at least 160 μg; cited from earlier work
[3] = nominal dose 20 μg, HFA 134a, 13% ethanol, 1% glycerol
[4] = nominal dose 20 μg, HFA 134a, 13% ethanol, 1% glycerol, 0.3 mm orifice, 50 μl chamber
[5] = nominal dose 40 μg, HFA 134a, 13% ethanol, 1% glycerol
[6] = nominal dose 40 μg, HFA 134a, 13% ethanol, 1% glycerol, 0.3 mm orifice, 50 μl chamber
[7] = nominal dose 80 μg, HFA 134a, 13% ethanol, 1% glycerol
[8] = nominal dose 80 μg, HFA 134a, 13% ethanol, 1% glycerol, 0.3 mm orifice, 50 μl chamber
[9] = nominal dose 80 μg, HFA 134a, 19% ethanol, without the low volatility component
[10] = nominal dose 160 μg, HFA 134a, 13% ethanol, 1% glycerol
[11] = nominal dose 160 μg, HFA 134a, 13% ethanol, 1% glycerol, 0.3 mm orifice, 50 μl chamber
[12] = nominal dose 160 μg, HFA 134a, 19% ethanol, without the low volatility component
[13] = nominal dose 320 μg, HFA 134a, 13% ethanol, 1% glycerol
[14] = nominal dose 320 μg, HFA 134a, 13% ethanol, 1% glycerol, 0.3 mm orifice, 100 μl chamber

Compound: CC(C)[N+]1(C)[C@@H]2CC[C@H]1CC(OC(=O)C(CO)c1ccccc1)C2.[Br-] (stereo partly drawn) [ipratropium bromide]
- MAD ([1]; Example 1 formulations with glycerol, over all nominal doses): 2.2-2.9 μm
- MAD ([1]; formulation containing an ethanol level of 19% by weight, nominal doses 80 and 160 μg): 1.2-1.3 μm
- GSD [1, 3]: 2.1 ± 0.8
- MAD [1, 3]: 2.4 ± 0.3 μm
- Respirable fraction [1, 3]: 33.3 ± 3.8%
- Delivered dose [1, 4]: 18.8 ± 1.6 µg
- Metered dose [1, 4]: 20.6 ± 1.6 µg
- Respirable dose ([1]; nominal dose 20 μg, particles less than 4.7 μm, HFA 134a, 13% ethanol, 1% glycerol): 6.8 ± 1.1 µg
- GSD [1, 5]: 2.1 ± 0.1
- MAD [1, 5]: 2.2 ± 0.1 μm
- Respirable fraction [1, 5]: 31.5 ± 3.8%
- Delivered dose [1, 6]: 38.7 ± 1.9 µg
- Metered dose [1, 6]: 42.2 ± 1.8 µg
- Respirable dose ([1]; nominal dose 40 μg, particles less than 4.7 μm, HFA 134a, 13% ethanol, 1% glycerol): 11.7 ± 1.2 µg
- GSD [1, 7]: 2.2 ± 0.1
- MAD [1, 7]: 2.7 ± 0.3 μm
- Respirable fraction [1, 7]: 32.0 ± 6.1%
- Delivered dose [1, 8]: 72.7 ± 0.6 µg
- Metered dose [1, 8]: 78.5 ± 0.4 µg
- Delivered dose [1, 9]: 70.0 ± 1.0 µg
- GSD [1, 9]: 4.3 ± 0.4
- MAD [1, 9]: 1.2 ± 0.1 μm
- Respirable dose [1, 9]: 20.0 ± 1.3 µg
- Respirable fraction [1, 9]: 28.7 ± 1.5%
- Metered dose ([1]; nominal dose 80 μg, HFA 134a, 19% ethanol, without the low volatility component, 0.3 mm orifice, 50 μl chamber): 76.6 ± 1.6 µg
- Respirable dose ([1]; nominal dose 80 μg, particles less than 4.7 μm, HFA 134a, 13% ethanol, 1% glycerol): 23.3 ± 4.5 µg
- GSD [1, 10]: 2.3 ± 0.1
- MAD [1, 10]: 2.5 ± 0.2 μm
- Respirable fraction [1, 10]: 30.4 ± 3.5%
- Delivered dose [1, 11]: 149.2 ± 10.7 µg
- Metered dose [1, 11]: 161.1 ± 12.5 µg
- Delivered dose [1, 12]: 144.2 ± 1.7 µg
- GSD [1, 12]: 6.2 ± 0.2
- MAD [1, 12]: 1.3 ± 0.2 μm
- Respirable dose [1, 12]: 31.4 ± 1.3 µg
- Respirable fraction [1, 12]: 21.8 ± 1.1%
- Metered dose ([1]; nominal dose 160 μg, HFA 134a, 19% ethanol, without the low volatility component, 0.3 mm orifice, 100 μl chamber): 158.5 ± 2.0 µg
- Respirable dose ([1]; nominal dose 160 μg, particles less than 4.7 μm, HFA 134a, 13% ethanol, 1% glycerol): 45.2 ± 2.5 µg
- GSD [1, 13]: 2.6 ± 0.1
- MAD [1, 13]: 2.9 ± 0.2 μm
- Respirable fraction [1, 13]: 25.2 ± 1.2%
- Delivered dose [1, 14]: 290.5 ± 1.9 µg
- Metered dose [1, 14]: 321.4 ± 2.0 µg
- Respirable dose ([1]; nominal dose 320 μg, particles less than 4.7 μm, HFA 134a, 13% ethanol, 1% glycerol): 73.2 ± 3.0 µg
- Duration of action [2]: up to 12 hours
